We go through 13 compounds from PubChem BioAssay (NCI).

Some test systems named below: A549 NSCLC; ACHN renal; DLD-1 colon; DMS 114 small cell lung; EKVX NSCLC; NCI-H226 lung; SW-620 colon; NCI-H522 lung; SNB-78 CNS; DU-145 prostate.
Test in all cases: NCI-60 cell line screen, 48 h

“And” between values parts separate entries of the source, which are not always exact repeats. Equal values may be shown once.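 96-well plates; 48 h exposure; 5 concentrations. Endpoints by linear interpolation between flanking doses. Not reached: highest tested concentration assigned. GI50 = concentration required for 50% inhibition of growth. TGI: total growth inhibition.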

In the case of `NC(Cc1ccccc1)C(=O)OCN1C(=O)C2C3C=CC(C2C1=O)C1C2C(=O)N(COC(=O)C(N)Cc4ccccc4)C(=O)C2C31` (stereo unspecified), the TGI in the assay with A549 NSCLC is 61.7 µM and 48.7 µM; in the assay with ACHN renal it was 59.2 µM and 71.3 µM; with DLD-1 colon, 51.4 µM and 60.6 µM; in the assay with DMS 114 small cell lung it was 40.4 µM and 33.8 µM; in the assay with EKVX NSCLC, more than 100 µM; in the assay with NCI-H226 lung it was > 100 µM and 72.1 µM. In the assay on SW-620 colon, the TGI is 51.3 µM and 52.8 µM.
With `CC12Nc3ccccc3C1=C(c1ccccc1)CC1C(=O)OC(=O)C12` (stereo unspecified), the TGI in the assay on A549 NSCLC, in the assay on ACHN renal, with DLD-1 colon, in the assay with DMS 114 small cell lung, in the assay with EKVX NSCLC and in the assay on NCI-H522 lung was more than 100 µM each time. For the same compound, the TGI in the assay with SNB-78 CNS and in the assay on SW-620 colon was more than 100 µM in each case.
Regarding `CC(=O)OCCOCn1c2ccccc2c2c3c(c4c5ccccc5n(COCCOC(C)=O)c4c21)C(=O)N(Cc1ccccc1)C3=O`, the TGI in the assay on A549 NSCLC, in the assay on ACHN renal, with DLD-1 colon, in the assay with EKVX NSCLC, in the assay on NCI-H226 lung and in the assay on SNB-78 CNS was more than 100 µM throughout. The compound also yielded a TGI in the assay on SW-620 colon of more than 100 µM.
For `CCCCCC/C=C/C#CCCCCCCCC(=O)O`, the TGI with A549 NSCLC, in the assay on ACHN renal, in the assay with DU-145 prostate, with EKVX NSCLC, in the assay with NCI-H226 lung and in the assay on NCI-H522 lung was more than 100 µM in each case. The compound further yielded a TGI in the assay with SW-620 colon of more than 100 µM.
Regarding `CN1CCN(CCCOc2cccc3nc(Nc4cc(Cl)cc(Cl)c4)ccc23)CC1`, the GI50 with A549 NSCLC was 1.98 µM; in the assay with ACHN renal, 1.66 µM; in the assay with DU-145 prostate, 1.69 µM; with EKVX NSCLC, 1.73 µM; in the assay with NCI-H226 lung, 1.95 µM; in the assay with NCI-H522 lung, 1.64 µM. The GI50 with SW-620 colon is 1.97 µM. Also, the TGI was 3.55 µM in the assay with A549 NSCLC; 3.09 µM in the assay with ACHN renal; 3.13 µM in the assay with DU-145 prostate; 3.27 µM in the assay with EKVX NSCLC; 4.04 µM in the assay with NCI-H226 lung; 3.17 µM in the assay with NCI-H522 lung. In the assay on SW-620 colon, this compound displayed a TGI of 3.68 µM.
Turning to `Oc1ccc(NC(=S)Nc2ccccc2)cc1`, the GI50 with A549 NSCLC, in the assay with ACHN renal, with DU-145 prostate, in the assay on EKVX NSCLC, in the assay on NCI-H226 lung and in the assay on NCI-H522 lung was more than 100 µM each time. The GI50 in the assay on SW-620 colon is more than 100 µM. For the same compound, the TGI in the assay with A549 NSCLC, with ACHN renal, with DU-145 prostate, in the assay on EKVX NSCLC, in the assay on NCI-H226 lung and in the assay with NCI-H522 lung was more than 100 µM each time. Moreover, the TGI in the assay on SW-620 colon was more than 100 µM.
As to `O/N=C1/CCC/C1=C\c1ccccc1`, the TGI in the assay with A549 NSCLC, with ACHN renal, with DLD-1 colon, in the assay on EKVX NSCLC, in the assay on NCI-H226 lung and in the assay with NCI-H522 lung was more than 100 µM in each case. Moreover, the TGI in the assay on SNB-78 CNS and with SW-620 colon was more than 100 µM each time.
Regarding `CC(C)C[C@H](CC(=O)O)C(=O)N[C@@H](Cc1c[nH]c2ccccc12)C(=O)N[C@@H](C)c1ccccc1`, the GI50 in the assay on A549 NSCLC, in the assay on ACHN renal, with DU-145 prostate, with EKVX NSCLC, in the assay with NCI-H226 lung and in the assay with NCI-H522 lung was more than 25 µM in each case. Moreover, the GI50 in the assay on SW-620 colon is more than 25 µM. Also, the TGI with A549 NSCLC, in the assay on ACHN renal, in the assay on DU-145 prostate, in the assay on EKVX NSCLC, with NCI-H226 lung and with NCI-H522 lung was more than 25 µM each time. Besides, in the assay on SW-620 colon, the TGI was more than 25 µM.
In the case of `C[C@@H]1CC[C@H]2[C@@H](C)C(O)O[C@@H]3O[C@]4(C)CC[C@@H]1[C@]32OO4` (stereo partly specified), the GI50 in the assay on A549 NSCLC is 1.74 µM; in the assay with ACHN renal, 1.26 µM; in the assay with DU-145 prostate, 5.27 µM; with EKVX NSCLC, 0.65 µM; in the assay with NCI-H226 lung it was 1.56 µM; in the assay with NCI-H522 lung, 0.329 µM. Also, the GI50 with SW-620 colon is 0.347 µM. The TGI is 13.5 µM in the assay on A549 NSCLC; 13 µM with ACHN renal; 17.4 µM in the assay with DU-145 prostate; 17.2 µM in the assay with EKVX NSCLC; 40.9 µM with NCI-H226 lung; 3.29 µM with NCI-H522 lung. In the assay on SW-620 colon, this compound showed a TGI of 17 µM.
Consider `N#C/C(=C\c1ccc(O)c(O)c1)C(=O)NCc1ccc(C(F)(F)F)cc1`, for which the GI50 in the assay on A549 NSCLC is 10.9 µM; in the assay with ACHN renal, 6.14 µM; with DU-145 prostate, 16.3 µM; in the assay with EKVX NSCLC it was 19.7 µM; in the assay with NCI-H226 lung, 19.8 µM; in the assay with NCI-H522 lung, 3.06 µM. In addition, the GI50 in the assay on SW-620 colon is 7.68 µM. The TGI is 53.5 µM with A549 NSCLC; 23.9 µM in the assay with ACHN renal; more than 62.3 µM with DU-145 prostate; more than 61.8 µM in the assay with EKVX NSCLC; 54.9 µM in the assay on NCI-H226 lung; 19.6 µM in the assay on NCI-H522 lung. This compound came in with a TGI with SW-620 colon of 37.8 µM.
Regarding `CCCCC(C(=O)C(=O)Nc1ccc(C)cc1C)C(=O)C(C)C` (stereo unspecified), the TGI in the assay with A549 NSCLC, with ACHN renal, in the assay on DLD-1 colon, in the assay with DMS 114 small cell lung, in the assay with EKVX NSCLC and in the assay on NCI-H226 lung was more than 100 µM each time. The TGI in the assay with SNB-78 CNS and in the assay with SW-620 colon was more than 100 µM each time.
Turning to `C/C(NNC(=O)c1ccccc1O)=C1\C=Nc2ccccc2S1`, the TGI with A549 NSCLC is 28.2 µM; with ACHN renal, more than 100 µM; in the assay with DLD-1 colon it was more than 100 µM; with EKVX NSCLC it was more than 100 µM; in the assay with NCI-H226 lung, 33.1 µM; with NCI-H522 lung it was more than 100 µM. Besides, the TGI in the assay with SNB-78 CNS and with SW-620 colon was more than 100 µM in each case.
On to `CC(C)N(C(=O)C12C3C4C1C1C2C3C41C(=O)C(C)(C)C)C(C)C` (stereo unspecified), for which the TGI in the assay with A549 NSCLC is more than 100 µM; in the assay on ACHN renal, more than 100 µM; in the assay with DLD-1 colon it was more than 100 µM; in the assay on DMS 114 small cell lung, more than 100 µM; in the assay with EKVX NSCLC, more than 100 µM; in the assay with NCI-H522 lung, 56.8 µM. Further, the TGI in the assay with SNB-78 CNS and in the assay on SW-620 colon was more than 100 µM each time.
